In patent US7576222B2, “Alkynyl-containing tryptophan derivative inhibitors of TACE/matrix metalloproteinase” (priority 2004, dated 2009):
Read-outs that look alike come from different tables or passages of the source.

How the values were obtained:
[1] = test system: TNF-α Secretion in Human Whole Blood; assay: Human whole blood assay for LPS-induced TNF-α secretion; type: cell-based; settings: fresh human blood, LPS 100 ng/ml, TNF-α by ELISA
Text: (§1) The basic measurement of the assay is the percentage of inhibition of TNF-α secretion and the IC50 determination by a fitting with the model-39 of LSW data analysis tool.

[2] = test system: TNF-α Secretion in Raw Cells (Raw 264.7 cells); assay: Cell-based assay for inhibition of TNF-α secretion in Raw cells; settings: read-out: TNF-α Secretion in Raw Cells IC50
Method: Cell-Based Assay for Inhibition of TNF-A Secretion in Raw Cells
as §1
Raw 264.7 cells (ATCC Cat No. TIB-71) are maintained in DMEM medium containing 10% of serum, P/S, and Glutamine. […] For testing compounds, cells are cultured to confluence and are seeded the day before the experiment in 24 well culture dishes at 0.5 to 1 million/ml/well. On the next morning, the medium from the overnight culture is replaced with the fresh growth medium. The compounds are added at various concentrations at the 0.2% of final DMSO concentrations (10 μl of a 20% DMSO solution containing testing compounds is added to each well). The cells are pre-incubated with compounds for 1 hour. LPS (Sigma, L2262) is added to cells at a final concentration of 100 ng/ml (10 μl of a […] LPS solution freshly diluted from a 1 mg/ml LPS stock solution in PBS is added to each well) and cells are further incubated for 4 hours at 37° C. One milliliter (1 ml) of the supernatant was collected, cells are spun down and the supernatants are frozen at −80° C. until use.
The TNF-α and other proinflammatory cytokines were detected by ELISA assay according to the manufacturer's instruction (Biosource International, Inc., Camarillo, Calif.) (For IL-1b measurement in Raw cells, one round of freeze and thaw of the cells was required.)

recombinant human MMP-2 = target: T1, recombinant human MMP-2 (Homo sapiens, UniProt P08253); assay: In-vitro fluorescence (FRET) assay of MMP-2 activity; type: biochemical
T1 construct: purchased Oncogene Research Products (Calbiochem) PF023
T1 sequence (P08253 110-660): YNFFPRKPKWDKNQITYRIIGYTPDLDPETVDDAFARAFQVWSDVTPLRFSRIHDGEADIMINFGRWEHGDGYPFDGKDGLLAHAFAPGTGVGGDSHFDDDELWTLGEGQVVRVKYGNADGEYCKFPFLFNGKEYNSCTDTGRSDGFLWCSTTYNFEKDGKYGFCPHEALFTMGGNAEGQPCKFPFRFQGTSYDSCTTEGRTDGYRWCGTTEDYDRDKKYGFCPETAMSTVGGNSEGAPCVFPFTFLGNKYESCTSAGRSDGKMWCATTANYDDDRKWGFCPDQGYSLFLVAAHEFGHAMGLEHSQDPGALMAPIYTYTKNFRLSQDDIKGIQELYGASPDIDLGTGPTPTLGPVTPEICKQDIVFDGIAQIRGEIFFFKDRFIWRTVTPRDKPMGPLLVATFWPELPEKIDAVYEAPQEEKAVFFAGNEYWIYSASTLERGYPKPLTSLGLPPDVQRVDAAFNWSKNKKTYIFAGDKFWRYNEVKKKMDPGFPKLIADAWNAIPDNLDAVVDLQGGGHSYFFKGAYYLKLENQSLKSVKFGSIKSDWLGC
Text: (§2) A continuous assay was used in which the substrate is a synthetic peptide containing a fluorescent group (7-methoxycoumarin; Mca) that is quenched by energy transfer to a 2,4-dinitrophenyl group. See Knight, C. G. et al., FEBS Lett. (1992) 296: 263-266, incorporated herein by reference in its entirety. […] See Zhang, Y et al., Journal of Pharmacology and Experimental Therapeutics (JPET) (2004) 309:348-355, incorporated by reference in its entirety. The substrate used was Mca-PQGL-(3-[2,4-dinitrophenyl]-L-2,3-diaminopropionyl)-AR-OH (denoted as Wammp-5, custom synthesized by AnaSpec, Inc., San Jose, Calif.). The assay buffer consisted of 50 mM Hepes (pH 7.4), 100 mM NaCl, 5 mM CaCl2, and 0.005% Brij-35. Each well of black polystyrene 96-well plates contained a 200 μl reaction mixture consisting of assay buffer, purified MMP (final concentration of 25 ng/ml, prepared by diluting with the assay buffer), and varied concentrations of inhibitor (prepared by serially diluting a given inhibitor in DMSO in 96-well polypropylene plate). The plates were then incubated at 30° C. for 15 minutes. The enzymatic reactions were initiated by adding the substrate to a final concentration of 20 μM, and mixing 10 times with a pipette. The final DMSO concentration in the assay was 6.0%. The initial rate of the cleavage reaction was determined at 30° C. with a fluorescence plate reader (excitation filter of 330 nm and emission filter of 395 nm) immediately after substrate addition.
(§3) Plots of the inhibitor concentration versus the percent inhibition were fit to the following equation: y=(a−d)/[1+(x/c)^b]+d, a general sigmoidal curve with Hill slope, a to d. x is the inhibitor concentration under test. “y” is the percent inhibition. “a” is the limiting response as x approaches zero. As x increases without bound, y tends toward its limit d. “c” is the inflection point (IC50) for the curve. That is, y is halfway between the lower and upper asymptotes when x=c. “b” is the slope factor or Hill coefficient.
In-Vitro Fluorescence Assay of MMP-2 Activity

[3] = target: T2, catalytic domain of the recombinant TACE protein (Homo sapiens, UniProt P78536); assay: TACE FRET assay using TACE cat; type: biochemical
T2 construct: The catalytic domain of the recombinant TACE protein was expressed and purified; made in house
T2 sequence (P78536 223-474 limits assumed): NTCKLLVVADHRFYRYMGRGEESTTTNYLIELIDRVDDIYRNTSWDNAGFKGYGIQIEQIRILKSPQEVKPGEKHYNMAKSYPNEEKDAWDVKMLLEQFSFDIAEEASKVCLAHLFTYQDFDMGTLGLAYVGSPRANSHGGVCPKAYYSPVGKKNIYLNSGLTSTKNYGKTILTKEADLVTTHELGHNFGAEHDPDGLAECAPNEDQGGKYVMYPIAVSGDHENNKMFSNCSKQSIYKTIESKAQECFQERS
How it was run: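 Enzyme (1 ug/ml) pretreated with inhibitor for 10 min at room temperature in 50 mM Tris-HCl pH 7.4, 25 mM NaCl, 4% glycerol, 0.005% Brij 35, then started with FRET peptide Abz-[sequence]-Dpa (2 mM stock). Initial rate taken from fluorescence slope; IC50 fitted with floated Hill slope and background.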

[4] = target: T3, recombinant human catalytic domain of MMP-14 (Homo sapiens, UniProt P50281); assay: biochemical
T3 construct: 177 amino acids corresponding to Tyr89-Gly265 of mature human enzyme; 20 kDa; purchased Chemicon International, Inc. CC1041
Text: as §2, §3
In-Vitro Fluorescence Assay of MMP-14 Activity

[5] = target: T4, recombinant human catalytic domain of MMP-13 (Homo sapiens, UniProt P45452); assay: biochemical
T4 construct: catalytic domain of MMP-13 (165 amino acids, residues 104-268, 19 kDa)
Text: as §2, §3
In-Vitro Fluorescence Assay of MMP-13 Activity
See Zhang, Y et al., Journal of Pharmacology and Experimental Therapeutics (JPET) (2004) 309:348-355, incorporated by reference in its entirety.

[6] = target: T5, recombinant human catalytic domain of MMP-1 (Homo sapiens, UniProt P03956); assay: In-vitro fluorescence (FRET) assay of MMP-1 activity; type: biochemical
T5 construct: the recombinant human catalytic domain of MMP-1
T5 sequence (P03956 100-269 limits assumed): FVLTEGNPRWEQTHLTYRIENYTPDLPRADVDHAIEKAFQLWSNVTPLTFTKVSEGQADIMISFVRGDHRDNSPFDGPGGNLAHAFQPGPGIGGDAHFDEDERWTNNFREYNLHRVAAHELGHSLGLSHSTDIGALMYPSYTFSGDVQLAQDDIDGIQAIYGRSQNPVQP
Text: In-Vitro Fluorescence Assay of MMP-1 Activity
A continuous assay was used in which the substrate is a synthetic peptide containing a fluorescent group (7-methoxycoumarin; Mca) that is quenched by energy transfer to a 2,4-dinitrophenyl group. See Knight, C. G. et al., FEBS Lett. (1992) 296: 263-266, incorporated herein by reference in its entirety. When the peptide was cleaved by MMP, a large increase in fluorescence was observed. The source of enzyme in the assay was the recombinant human catalytic domain of MMP-1. See Zhang, Y et al., Journal of Pharmacology and Experimental Therapeutics (JPET) (2004) 309:348-355, incorporated by reference in its entirety. The substrate used was Mca-PQGL-(3-[2,4-dinitrophenyl]-L-2,3-diaminopropionyl)-AR-OH (denoted as Wammp-5, custom synthesized by AnaSpec, Inc., San Jose, Calif.). The assay buffer consisted of 50 mM Hepes (pH 7.4), 100 mM NaCl, 5 mM CaCl2, and 0.005% Brij-35. Each well of black polystyrene 96-well plates contained a 200 μl reaction mixture consisting of assay buffer, purified MMP (final concentration of 25 ng/ml, prepared by diluting with the assay buffer), and varied concentrations of inhibitor (prepared by serially diluting a given inhibitor in DMSO in 96-well polypropylene plate). The plates were then incubated at 30° C. for 15 minutes. The enzymatic reactions were initiated by adding the substrate to a final concentration of 20 μM, and mixing 10 times with a pipette. The final DMSO concentration in the assay was 6.0%. The initial rate of the cleavage reaction was determined at 30° C. with a fluorescence plate reader (excitation filter of 330 nm and emission filter of 395 nm) immediately after substrate addition.
as §3

[7] = Raw 264.7 cells, LPS 100 ng/ml, 4 hours, TNF-α by ELISA
[8] = TACE FRET assay, catalytic domain of recombinant TACE, read-out: TACE IC50

Row | Compound | IC50 (recombinant human MMP-2) [µM] | IC50 [3, 8] [µM] | IC50 [4] [µM] | IC50 [5] [µM] | IC50 ([2]; Mus musculus, RAW264.7, 4 h) [µM] | also measured
1 | CC#CCOc1ccc(S(=O)(=O)N[C@@H](Cc2c[nH]c3ccc(C)cc23)C(=O)O)cc1 [Example 218, N-{[4-(but-2-ynyloxy)phenyl]sulfonyl}-5-methyl-L(or D)-tryptophan] | 0.27 | 0.14 | 6.82 | 1.81 |  | IC50 [1]: > 50 µM; IC50 [2, 7]: 7.11 µM; MMP-1 Inhibition ([6]; Conc. 160 μM): 30%
2 | CC#CCOc1ccc(S(=O)(=O)N[C@H](Cc2cn(Cc3ccccc3-c3ccccc3)c3ccccc23)C(=O)O)cc1 [Example 27, 1-(1,1′-biphenyl-2-ylmethyl)-N-{[4-(but-2-ynyloxy)phenyl]sulfonyl}-D-tryptophan] |  | 0.97 |  |  | > 60 | 
3 | CC#CCOc1ccc(S(=O)(=O)NC(Cc2c[nH]c3ccc(OC)cc23)C(=O)O)cc1 (racemic) [Example 4, N-{[4-(but-2-ynyloxy)phenyl]sulfonyl}-5-methoxytryptophan] | 7.84 |  | 22.7 |  |  | IC50 [3]: 0.36 µM; inhibition at 15 µM ([5]; read-out: MMP-13 Inhibition): 50%; inhibition at 1000 µM ([6]; read-out: MMP-1 Inhibition): 33%
4 | CC#CCOc1ccc(S(=O)(=O)N[C@H](Cc2cn(Cc3ccc(OC)cc3)c3ccccc23)C(=O)O)cc1 [Example 35, N-{[4-(but-2-ynyloxy)phenyl]sulfonyl}-1-(4-methoxybenzyl)-D-tryptophan] |  | 0.08 | 13 |  | > 60 | inhibition at 33 µM ([6]; read-out: MMP-1 Inhibition): 14%
5 | CC#CCOc1ccc(S(=O)(=O)NC(Cc2cn(Cc3ccc(OC)cc3)c3ccc(C)cc23)C(=O)O)cc1 (stereo not drawn) [Example 47, N-{[4-(but-2-ynyloxy)phenyl]sulfonyl}-1-(4-methoxybenzyl)-5-methyltryptophan] | 0.66 |  | 11.6 |  |  | inhibition at 67 µM ([6]; read-out: MMP-1 Inhibition): 30%
6 | CC#CCOc1ccc(S(=O)(=O)N[C@@H](Cc2c[nH]c3ccc(OCc4ccccc4)cc23)C(=O)O)cc1 [Example 224, 5-(benzyloxy)-N-{[4-(but-2-ynyloxy)phenyl]sulfonyl}-L(or D)-tryptophan] | 2.45 |  | 19.7 | 4.44 |  | MMP-1 Inhibition ([6]; Conc. 83 μM): 19%
7 | CC#CCOc1ccc(S(=O)(=O)N[C@@H](Cc2c[nH]c3ccc(OC)cc23)C(=O)O)cc1 [Example 221, N-{[4-(but-2-ynyloxy)phenyl]sulfonyl}-5-methoxy-D(or L)-tryptophan] | 1.27 | 0.14 | 20.7 | 13.6 |  | IC50 [2, 7]: 57 µM; MMP-1 Inhibition ([6]; Conc. 83 μM): 9%
8 | CC#CCOc1ccc(S(=O)(=O)N[C@@H](Cc2c(C)n(Cc3ccc(F)cc3)c3ccc(OC)cc23)C(=O)O)cc1 [Example 199, N-{[4-(but-2-ynyloxy)phenyl]sulfonyl}-1-(4-fluorobenzyl)-5-methoxy-2-methyltryptophan] |  |  |  |  | > 60 | IC50 [3]: 0.32 µM
